Data set [1] deals with HepG2. The data set is described as follows: HepG2 72 h CellTiter-Glo cytotoxicity. The following applies: 72 h. (In general: ATP-based viability assays read luminescence as a measure of living cells.)
Data set [2] is described as follows: HepG2 72 h CellTiter-Glo cytotoxicity. The conditions noted are these: human, HepG2 cells.
The subject of data set [3] is HeLa-ACE2 cells. The data set is described as follows: cells. The conditions noted are these: Homo sapiens; for Emax: HeLa-ACE2, 24 h, read-out: HeLa-ACE2 cell count Sinf Average; for pEC50: HeLa-ACE2, read-out: HeLa-ACE2 cell count EC50 GeoMean, detail block.
Data set [4] concerns SARS-CoV-2. In words: microbe, parasite or virus in culture. In kind it is cell-based. The following applies: for pEC50: Severe acute respiratory syndrome coronavirus 2, HeLa-ACE2, detail block, read-out: HeLa-ACE2 TOA CoV-2 EC50 GeoMean; for Emax: Severe acute respiratory syndrome coronavirus 2, HeLa-ACE2, 10 h, curve plateau at infinite concentration, read-out: HeLa-ACE2 TOA CoV-2 Sinf Average.

The subject of data set [5] is SARS-CoV-2. In words: microbe, parasite or virus in culture. In kind it is cell-based. The conditions noted are these: for pEC50: Severe acute respiratory syndrome coronavirus 2, Calu-3, detail block, read-out: Calu-3 CoV-2 EC50 GeoMean; for Calu-3 SI: selectivity index, uninfected Calu-3 CC50 / Calu-3 SARS-CoV-2 EC50.
The subject of data set [6] is Calu-3 cells. In words: cells. The following applies: Homo sapiens; for pEC50: Calu-3, read-out: Calu-3 cell count EC50 GeoMean, detail block; for Emax: Calu-3, 48 h, read-out: Calu-3 cell count Sinf Average.
Data set [7] deals with HeLa-ACE2 cells. The data set is described as follows: cells. In kind it is cell-based, human. The conditions noted are these: Homo sapiens, HeLa-ACE2; read-out: HeLa-ACE2 TOA cell count EC50 GeoMean.
Data set [8] concerns HEK293T. In words: HEK293T 72 h CellTiter-Glo cytotoxicity. The conditions noted are these: 72 h.
Data set [9] can be described thus: HEK293T 72 h CellTiter-Glo cytotoxicity. The following applies: human, HEK293T cells.
The test system of data set [10] is SARS-CoV-2. The data set is described as follows: microbe, parasite or virus in culture. In kind it is cell-based. The conditions noted are these: for Emax: Severe acute respiratory syndrome coronavirus 2, HeLa-ACE2, 24 h, curve plateau at infinite concentration, read-out: HeLa-ACE2 CoV-2 Sinf Average; for pEC50: Severe acute respiratory syndrome coronavirus 2, HeLa-ACE2, detail block, read-out: HeLa-ACE2 CoV-2 EC50 GeoMean.

Data set [11] has as its system HeLa-ACE2 cells. In words: Uninfected HeLa-ACE2 24 h live/dead cytotoxicity counter screen. In kind it is cell-based, human. The following applies: curve plateau at infinite concentration. For orientation: Counterscreens check selectivity or assay interference.
Test in data set [12]: as above
In kind it is cell-based, human. The following applies: human, uninfected HeLa-ACE2 cells, detail block; read-out: HeLa-ACE2 uninfected cytotoxicity CC50 GeoMean.

Data set [13] relates to HEK293T. The conditions noted are these: human, 72 h.
Data set [14] deals with Calu-3 cells. The conditions noted are these: for Calu-3 uninfected cytotoxicity Sinf Average: human, 48 h.
The nature of data set [15]: in vitro. The conditions noted are these: human, Calu-3 uninfected cytotoxicity CC50 GeoMean.
Data set [16] deals with HepG2. The following applies: human, 72 h.
In data set [17] the test system is Calu-3 cells. In words: Uninfected Calu-3 48 h Cell-Titer Glo cytotoxicity counter screen. The conditions noted are these: curve plateau at infinite concentration.
Setting [18] is: selectivity index, uninfected HeLa-ACE2 CC50 / SARS-CoV-2 EC50.
[19] abbreviates: TOA EC50 / HeLa-ACE2 SARS-CoV-2 EC50.

From article PMC8175350, “Drug repurposing screens identify chemical entities for the development of COVID-19 interventions” (Nature Communications, 2021) come the findings set out here.

A word on the CC50: it is the concentration giving 50% cytotoxicity. Broadly, the pEC50 is the EC50 on a negative log10 scale, so that one unit is a factor of ten.

pEC50: −log10 of the molar value. Where two headings read alike, the source gives them in different places.

Turning to `CCN(CC)Cc1cc(Nc2ccnc3cc(Cl)ccc23)ccc1O` [Amodiaquine], the “HepG2 72-hour cytotoxicity Sinf Average” value in data set [1] is -80%. The figures for the CC50 at 72 h in [2] and in data set [9] were 3.76 µM and 10 µM, respectively. Besides, the Emax in [3] is -26%; in [10], 102%. Besides, the pEC50 in data set [3] was less than 6.06; in [4] it was less than 5.02; in data set [5] it was less than 5.01; in [6], less than 5.01; in data set [7] it was less than 5.02; in data set [10] it was 5.92. Also, in data set [4], the “TOA:HeLa-ACE2 EC50 Ratio” value is listed as 8.060. Moreover, in data set [8], the “HEK293T 72-hour cytotoxicty Sinf Average” value is listed as -87%. The “HeLa-ACE2 SI” value in data set [10] (setting [18]) was more than 33.48. Besides, the “HeLa-ACE2 uninfected cytotoxicity Sinf Average” value in data set [11] is listed as -89%. In addition, the CC50 at 24 h in data set [12] is more than 39.8 µM.

`COC(CNCC(C)C)COc1c(C)csc1C(=O)CCc1ccccc1` (centres unmarked) [LG-6-101]: the negative-log EC50 (pEC50) in data set [3] was less than 5.02; in data set [4], less than 5.04; in [5], less than 5.00; in [6], less than 5.00; in data set [7], less than 5.02; in data set [10], 5.46. Further, the Emax in [4] was determined as 100%; in data set [5] (Severe acute respiratory syndrome coronavirus 2, Calu-3, 48 h, curve plateau at infinite concentration, read-out: Calu-3 CoV-2 Sinf Average), 83%; in data set [6], 100%; in data set [10], 100%. In addition, in [4] (setting [19]), the “TOA:HeLa-ACE2 EC50 Ratio” value turned out to be 2.655. In addition, the “Calu-3 SI” value in data set [5] was determined as 2.91. In data set [13], the “HEK293T 72-hour cytotoxicty Sinf Average” value is -100%. In addition, in data set [14], the “uninfected Calu-3 CC50” value is given as > 29.079 ×÷ 1.048 (n=3) μM. Further, the “Calu-3 uninfected cytotoxicity Sinf Average” value in data set [14] is recorded as -100%. The CC50 at 48 h in data set [15] is more than 29.1 µM. Besides, in [16], the “HepG2 72-hour cytotoxicity Sinf Average” value is recorded as -100%. The “HeLa-ACE2 uninfected cytotoxicity Sinf Average” value in data set [11] is recorded as -100%. In [12], the CC50 at 24 h is more than 35.6 µM.

`CN1[C@@H]2CC[C@H]1C[C@@H](N1Cc3ccc4ccccc4c3C1=O)C2` [CR-3124]: the “HepG2 72-hour cytotoxicity Sinf Average” value in [1] is reported as -100%. Also, the pEC50 in [3] was less than 5.02; in [4], less than 5.02; in data set [5], less than 5.00; in data set [6], less than 5.00; in data set [7], less than 5.02; in data set [10], 5.22. Also, the Emax in [4] and in data set [10] was 100% each time. Besides, the “TOA:HeLa-ACE2 EC50 Ratio” value in data set [4] (setting [19]) was found to be 1.607. Moreover, in data set [17], the “Calu-3 uninfected cytotoxicity Sinf Average” value was -100%. Besides, the “HEK293T 72-hour cytotoxicty Sinf Average” value in data set [8] is reported as -100%. Besides, the “HeLa-ACE2 SI” value in data set [10] was more than 6.67. In data set [15] (detail block), the half-maximal cytotoxic concentration (CC50) is more than 29.9 µM. Further, the “HeLa-ACE2 uninfected cytotoxicity Sinf Average” value in data set [11] is reported as -100%. Further, the CC50 at 24 h in data set [12] is more than 39.8 µM.

As to `N#Cc1c(N)nc(N)nc1N[C@H](c1nc2c(F)ccc(Cl)c2c(=O)n1-c1cccnc1)C1CC1` [GS-9901], the Emax in data set [3] was 100%; in data set [6], -100%; in data set [10], 100%. In addition, the pEC50 in data set [3] is less than 5.02; in data set [4] it was less than 5.02; in [5], less than 5.00; in data set [6], less than 5.00; in data set [7] it was less than 5.02; in data set [10], 5.42. The “TOA:HeLa-ACE2 EC50 Ratio” value in data set [4] (setting [19]) is 2.519. Besides, the “HEK293T 72-hour cytotoxicty Sinf Average” value in [13] was -97%. For the same compound, the “uninfected Calu-3 CC50” value in data set [14] is given as > 29.867 ×÷ 1.001 (n=3) μM. Besides, the “HeLa-ACE2 SI” value in [10] is more than 8.17. In [15], this compound registered a CC50 at 48 h of more than 29.9 µM. Besides, the “HepG2 72-hour cytotoxicity Sinf Average” value in data set [16] was -100%. Further, the “HeLa-ACE2 uninfected cytotoxicity Sinf Average” value in data set [11] is -100%. Further, the CC50 at 24 h in [12] was more than 31.1 µM.

Consider `N#Cc1ccc2c(c1)[C@H]1CN(CCCCNC(=O)c3ccc(-c4ccccc4)cc3)C[C@@H]1CO2` [S-33084], for which the pEC50 in data set [3] is less than 5.02; in data set [4] it was 5.41; in data set [5], less than 5.00; in data set [6], less than 5.00; in data set [7], less than 5.02; in data set [10], 5.41. Besides, the Emax in data set [4] and in data set [10] was 100% throughout. The “TOA:HeLa-ACE2 EC50 Ratio” value in [4] (setting [19]) is recorded as 1.005. Besides, in data set [5], the “Calu-3 SI” value turned out to be 2.28. In addition, the “HEK293T 72-hour cytotoxicty Sinf Average” value in data set [13] was -100%. For the same compound, the “uninfected Calu-3 CC50” value in data set [14] is given as > 22.75 ×÷ 1.601 (n=3) μM. Moreover, in [14], the “Calu-3 uninfected cytotoxicity Sinf Average” value is -100%. The “HeLa-ACE2 SI” value in data set [10] (setting [18]) is given as more than 6.34. This compound had a CC50 at 48 h in [15] of more than 22.8 µM. Besides, the “HepG2 72-hour cytotoxicity Sinf Average” value in data set [16] is -100%. Besides, in data set [11], the “HeLa-ACE2 uninfected cytotoxicity Sinf Average” value was -100%. For the same compound, the CC50 at 24 h in data set [12] was more than 24.8 µM.
